Results on four compounds are retold here after PMC7367925, “The EU-ToxRisk method documentation, data processing and chemical testing pipeline for the regulatory use of new approach methods” (Archives of Toxicology, 2020).

Each structure is given as a SMILES string.

For one data set, the target named is T1, PPARα (Homo sapiens, UniProt Q07869).
T1 construct: host or cells: U-2 OS
T1 sequence (Q07869 1-468): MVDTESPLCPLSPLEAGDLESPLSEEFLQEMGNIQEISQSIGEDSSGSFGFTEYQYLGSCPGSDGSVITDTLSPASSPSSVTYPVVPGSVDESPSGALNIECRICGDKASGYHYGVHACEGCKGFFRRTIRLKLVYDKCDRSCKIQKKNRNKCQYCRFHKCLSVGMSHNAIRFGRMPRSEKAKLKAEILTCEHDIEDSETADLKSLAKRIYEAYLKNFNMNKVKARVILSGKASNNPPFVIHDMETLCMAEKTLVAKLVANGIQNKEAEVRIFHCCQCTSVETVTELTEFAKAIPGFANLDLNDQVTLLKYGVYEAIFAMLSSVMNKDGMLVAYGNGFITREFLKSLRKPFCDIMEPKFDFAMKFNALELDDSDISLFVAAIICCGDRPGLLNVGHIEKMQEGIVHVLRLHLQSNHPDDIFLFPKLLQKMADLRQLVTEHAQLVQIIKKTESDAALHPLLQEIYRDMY
Nature of the data set: PPARa CALUX. The conditions noted are these: 24 h exposure, lowest effect level PC10, means from 3 assay runs. Format: cell-based. The protocol: (§1) After 24 h, exposure medium was prepared. […] All samples were tested in triplicates. […] Fig. SM_4. […] Fig. SM_4.
(§2) Cell line Endpoint effect Reference compound […]
PPARa CALUX Peroxisomeproliferator activated receptor agonists PC10 GW7647 […]
(§3) Supplementary Material SM_4
(§4) Overview of CALUX assays.
(§5) This is defined as the concentration of test compound […]
(§6) for an antagonist assay is a PC20.
(§7) PC = positive control. FI = fold induction. PC10: concentration where test compound causes an activation equal to 10% of the maximum effect (positive control). PC20: concentration where test compound causes […]
(§8) FI=1.5: concentration where test
(§9) (A) exemplary graph of concentration- […]
(§10) receptor antagonism assay with PC20 as lowest-effect-level. (C) exemplary graph for assay with 1.5 fold inductionas lowest effect level. 9

In a further data set the target is T2, PPARδ (Homo sapiens, UniProt Q03181).
T2 construct: host or cells: U-2 OS
T2 sequence (Q03181 1-441): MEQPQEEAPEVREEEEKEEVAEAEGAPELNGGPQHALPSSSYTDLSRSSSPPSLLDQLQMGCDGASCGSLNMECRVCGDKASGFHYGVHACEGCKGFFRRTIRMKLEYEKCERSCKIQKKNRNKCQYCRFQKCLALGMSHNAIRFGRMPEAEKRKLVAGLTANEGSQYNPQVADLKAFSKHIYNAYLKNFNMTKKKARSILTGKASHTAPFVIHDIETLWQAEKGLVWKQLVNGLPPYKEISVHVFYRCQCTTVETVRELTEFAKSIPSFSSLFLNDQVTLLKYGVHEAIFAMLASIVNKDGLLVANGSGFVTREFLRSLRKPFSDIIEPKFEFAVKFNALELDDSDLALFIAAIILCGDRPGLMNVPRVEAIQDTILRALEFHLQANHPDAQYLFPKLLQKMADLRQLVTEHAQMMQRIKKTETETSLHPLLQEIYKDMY
The data set is described as follows: PPARd CALUX. The settings on record: 24 h exposure, lowest effect level PC10, means from 3 assay runs. Format: cell-based.

The next data set deals with T3, PPARγ (Homo sapiens, UniProt P37231).
T3 construct: host or cells: U-2 OS
T3 sequence (P37231 1-505): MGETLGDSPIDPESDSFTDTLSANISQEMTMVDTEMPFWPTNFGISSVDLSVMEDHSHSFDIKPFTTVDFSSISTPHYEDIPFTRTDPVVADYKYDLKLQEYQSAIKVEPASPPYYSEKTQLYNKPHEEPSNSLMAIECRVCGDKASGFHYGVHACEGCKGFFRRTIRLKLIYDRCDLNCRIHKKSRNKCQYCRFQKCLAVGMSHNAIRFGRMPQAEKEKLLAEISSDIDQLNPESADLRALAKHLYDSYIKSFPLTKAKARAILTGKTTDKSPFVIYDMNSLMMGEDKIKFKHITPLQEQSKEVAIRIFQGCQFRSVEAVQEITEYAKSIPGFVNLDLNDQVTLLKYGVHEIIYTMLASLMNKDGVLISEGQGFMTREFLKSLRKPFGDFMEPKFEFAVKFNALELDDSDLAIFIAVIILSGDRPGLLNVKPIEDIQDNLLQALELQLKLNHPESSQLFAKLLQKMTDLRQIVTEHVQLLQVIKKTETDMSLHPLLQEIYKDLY
The data set is described as follows: PPARg2 CALUX. Format: cell-based. The settings on record: 24 h exposure, lowest effect level PC10, means from 3 assay runs. The method, then: as §1, §2, §3, §4, §5, §6, §7, §8, §9, §10

The subject of data set [1] is p53-dependent pathway activation / genotoxicity. Format: cell-based, human. The settings on record: 24 h exposure, lowest effect level FI=1.5, means from 3 assay runs. The method, then:
as §1, §3, §4, §5, §6, §7, §8, §9, §10

The subject of data set [2] is U-2 OS reporter cell lines battery. The data set is described as follows: CALUX reporter gene assay battery as a whole. The settings on record: all CALUX assays, 13 concentrations, 24 h exposure. A general note: In a reporter assay the amount or activity of a reporter protein is the signal.
Method: CALUX® assay procedure: Testing was performed in non-blinded fashion. […] In brief, the assay was performed in assay medium, consisting of DMEM without phenol red indicator (Gibco) supplemented with 5% charcoal-stripped fetal calf serum (DCC), 1 × non-essential amino acids (Gibco) and 10 U/ml penicillin and 10 µg/ml streptomycin. A cell suspension in assay medium was made of 1 × 10^5 cells/ml, and white 384-wells plates were seeded with 30 µl cell suspension/well. After 24 h, exposure medium was prepared. A dilution series in 0.5 log unit increments of each test compound (in DMSO) was added to a 96-wells plate containing assay medium. Of this exposure mixture, 30 µl was added to the assay plates containing the CALUX® cells, resulting in a final DMSO concentration of 0.1%. Additionally, DMSO blanks and a full dose response curve of the reference compounds were included on each plate. All samples were tested in triplicates. The preparation of the compound dilution series as well as the exposure of the cells were performed on a Hamilton Starlet liquid handling robot coupled to a Cytomat incubator. […] Subsequently, the luciferase signal was measured in a luminometer (InfinitePro coupled to a Connect Stacker, both TECAN). To be able to detect receptor antagonism, the assays were also performed in antagonistic mode using the receptor cell lines. The assay procedure was as described above, with the only exception that the reference agonists were present during the exposure at a concentration corresponding to their EC50.
ERa CALUX Estrogen receptor agonists PC10 estradiol
ERa-anti CALUX Estrogen receptor antagonists PC20 tamoxifen
AR CALUX Androgen receptor agonists PC10 dihydrotestosterone(DHT)
AR-anti CALUX Androgen receptor antagonists PC20 flutamide
PR CALUX Progesterone receptor agonists PC10 Org2058
PR-anti CALUX Progesterone receptor antagonists PC20 Ru486
GR CALUX Glucocorticoid receptor agonists PC10 dexamethasone (DEX)
GR-anti CALUX Glucocorticoid receptor antagonists PC20 Ru486
TRb CALUX Thyroid receptor agonists PC10 3,3‘5-trioiodo-L-thyronine (T3)
TRb-anti CALUX Thyroid receptor antagonists PC20 deoxynivalenol
RAR CALUX Retinoic acid receptor agonists PC10 retinoic acid
LXR CALUX Liver X receptor agonists PC10 GW3965 hydrochloride
PXR CALUX Pregnane X receptor agonists PC10 nicardipine
PPARa CALUX Peroxisomeproliferator activated receptor agonists PC10 GW7647 PPARg2 CALUX Peroxisome proliferator activated receptor agonists PC10 rosiglitazone
DR CALUX / AhR Aryl Hydrocarbon receptor agonists PC10 2,3,7,8-TCDD
Hif1a CALUX Chemical hypoxia response PC10 cobaltous(II)chloride
TCF CALUX wnt/TCF pathway activation FI=1.5 lithium chloride
AP-1 CALUX AP1 pathway activation / cell cycle control PC10 TPA (PMA)
ESRE CALUX Endoplasmic reticulum stress PC10 tunicamycin
NFkB CALUX Activation of NF-kB pathway (immune response) PC10 TPA (PMA)
Nrf2 CALUX Oxidative stress FI=1.5 curcumine
p21 CALUX Transcription of p21 inhibitor of cell cycle progression PC10 actinomycin D
p53 CALUX p53-dependent pathway activation / genotoxicity FI=1.5 actinomycin D
Cytotox CALUX Cytoxicity PC20 tributyltinacetate
(§11) The point od departure (PoD) if all these assays is defined by a “lowest effect level”.
(§12) A typical endpoint for an agonist assay is a PC10. This is defined as the concentration of test compound
giving a signal level that corresponds to 10% of the difference of the baseline (no agonist) and the maximal
The conditions of data set [3]: human, plasma; cited from earlier work.
In a further data set the target is T4, Progesterone receptor (Homo sapiens, UniProt P06401).
T4 construct: host or cells: U-2 OS
T4 sequence (P06401 1-933): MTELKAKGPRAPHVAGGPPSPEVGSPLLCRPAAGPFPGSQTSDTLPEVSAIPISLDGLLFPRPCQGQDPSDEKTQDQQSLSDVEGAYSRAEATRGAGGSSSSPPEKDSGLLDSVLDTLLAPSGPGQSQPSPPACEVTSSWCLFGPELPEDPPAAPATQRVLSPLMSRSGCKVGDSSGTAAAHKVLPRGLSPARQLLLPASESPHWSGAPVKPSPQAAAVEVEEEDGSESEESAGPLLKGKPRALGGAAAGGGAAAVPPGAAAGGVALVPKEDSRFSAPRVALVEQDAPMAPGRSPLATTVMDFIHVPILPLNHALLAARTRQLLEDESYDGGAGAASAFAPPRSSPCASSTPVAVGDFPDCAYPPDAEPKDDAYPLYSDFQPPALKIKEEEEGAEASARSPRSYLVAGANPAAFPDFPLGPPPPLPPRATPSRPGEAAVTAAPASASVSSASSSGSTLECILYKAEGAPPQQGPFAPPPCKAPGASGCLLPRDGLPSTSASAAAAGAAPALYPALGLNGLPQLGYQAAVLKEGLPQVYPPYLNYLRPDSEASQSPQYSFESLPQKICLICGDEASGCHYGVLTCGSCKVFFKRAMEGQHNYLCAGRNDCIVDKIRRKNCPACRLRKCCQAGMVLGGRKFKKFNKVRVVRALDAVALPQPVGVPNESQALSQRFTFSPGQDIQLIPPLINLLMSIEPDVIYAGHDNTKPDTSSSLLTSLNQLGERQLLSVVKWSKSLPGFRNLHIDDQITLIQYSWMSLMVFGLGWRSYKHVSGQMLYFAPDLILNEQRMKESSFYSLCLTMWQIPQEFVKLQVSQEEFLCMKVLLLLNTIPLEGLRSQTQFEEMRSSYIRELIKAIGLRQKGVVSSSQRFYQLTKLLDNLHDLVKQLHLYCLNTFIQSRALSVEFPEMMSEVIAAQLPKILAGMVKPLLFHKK
The data set is described as follows: PR-anti CALUX. The conditions noted are these: 24 h exposure, lowest effect level PC20, reference agonist at EC50, means from 3 assay runs. Format: cell-based. The protocol:
as §1, §3, §4, §5, §6, §7, §8, §9, §10

Another data set deals with T5, Pregnane X receptor (Homo sapiens, UniProt O75469).
T5 construct: host or cells: U-2 OS
T5 sequence (O75469 1-434): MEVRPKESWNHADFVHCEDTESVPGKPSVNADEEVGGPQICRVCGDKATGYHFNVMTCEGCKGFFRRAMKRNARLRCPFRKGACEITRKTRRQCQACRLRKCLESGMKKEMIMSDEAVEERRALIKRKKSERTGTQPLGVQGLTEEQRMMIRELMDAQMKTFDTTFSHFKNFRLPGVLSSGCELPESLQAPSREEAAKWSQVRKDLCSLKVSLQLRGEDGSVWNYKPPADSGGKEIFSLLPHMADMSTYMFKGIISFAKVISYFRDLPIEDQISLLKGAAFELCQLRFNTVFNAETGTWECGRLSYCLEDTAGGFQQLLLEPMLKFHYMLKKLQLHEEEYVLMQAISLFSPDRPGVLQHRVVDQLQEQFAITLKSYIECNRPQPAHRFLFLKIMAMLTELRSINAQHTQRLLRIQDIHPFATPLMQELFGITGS
Nature of the data set: PXR CALUX. Format: cell-based. The conditions noted are these: 24 h exposure, lowest effect level PC10, means from 3 assay runs. The protocol:
as §1, §3, §4, §5, §6, §7, §8, §9, §10

The target in data set [4] is T6, Aryl Hydrocarbon receptor (Rattus norvegicus, UniProt P41738).
T6 construct: host or cells: rat hepatoma H-4-II-E (ATCC CRL-1548)
T6 sequence (P41738 10-853): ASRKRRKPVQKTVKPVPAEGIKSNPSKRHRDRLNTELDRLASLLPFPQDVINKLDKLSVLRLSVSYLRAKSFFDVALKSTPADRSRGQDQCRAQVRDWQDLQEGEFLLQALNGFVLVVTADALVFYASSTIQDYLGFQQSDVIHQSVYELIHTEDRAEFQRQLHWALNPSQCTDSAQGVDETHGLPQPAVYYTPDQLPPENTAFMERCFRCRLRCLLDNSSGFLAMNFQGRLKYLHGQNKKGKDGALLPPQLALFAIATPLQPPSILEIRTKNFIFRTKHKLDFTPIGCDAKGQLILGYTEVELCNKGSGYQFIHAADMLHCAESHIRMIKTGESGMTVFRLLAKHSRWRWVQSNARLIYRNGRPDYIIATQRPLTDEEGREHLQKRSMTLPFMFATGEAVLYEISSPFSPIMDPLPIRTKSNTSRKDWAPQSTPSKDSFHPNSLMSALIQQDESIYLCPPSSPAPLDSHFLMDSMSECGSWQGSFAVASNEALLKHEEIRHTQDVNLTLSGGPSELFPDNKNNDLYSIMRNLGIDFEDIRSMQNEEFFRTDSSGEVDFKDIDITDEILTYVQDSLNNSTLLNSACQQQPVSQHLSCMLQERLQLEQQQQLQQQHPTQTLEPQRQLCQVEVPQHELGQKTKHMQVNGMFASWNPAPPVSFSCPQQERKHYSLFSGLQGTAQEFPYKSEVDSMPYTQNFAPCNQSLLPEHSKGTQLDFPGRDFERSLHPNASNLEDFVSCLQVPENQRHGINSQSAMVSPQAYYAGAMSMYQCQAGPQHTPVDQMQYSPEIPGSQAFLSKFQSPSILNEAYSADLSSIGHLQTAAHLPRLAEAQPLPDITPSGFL
Nature of the data set: DR CALUX / AhR CALUX (rat hepatoma H-4-II-E cells). Format: cell-based. The conditions noted are these: 24 h exposure, lowest effect level PC10, means from 3 assay runs.

A further data set deals with Nrf2 (Oxidative stress). The data set is described as follows: Nrf2 CALUX. Format: cell-based, human. The conditions noted are these: 24 h exposure, lowest effect level FI=1.5, means from 3 assay runs. The protocol:
as §1, §3, §4, §5, §6, §7, §8, §9, §10

The next data set has as its system U-2 OS cells. Nature of the data set: Cytotox CALUX. The settings on record: 24 h exposure, lowest effect level PC20, means from 3 assay runs.
Data set [5] relates to wnt/TCF pathway activation. The data set is described as follows: TCF CALUX. Format: cell-based, human. The settings on record: 24 h exposure, lowest effect level FI=1.5, means from 3 assay runs.
Data set [6] concerns Endoplasmic reticulum stress. The data set is described as follows: ESRE CALUX. Format: cell-based, human. The settings on record: 24 h exposure, lowest effect level PC10, means from 3 assay runs. The method, then: as §1, §3, §4, §5, §6, §7, §8, §9, §10
In data set [7] the test system is Transcription of p21 inhibitor of cell cycle progression. Nature of the data set: p21 CALUX. Format: cell-based, human. The conditions noted are these: 24 h exposure, lowest effect level PC10, means from 3 assay runs. The protocol: as §1, §3, §4, §5, §6, §7, §8, §9, §10

Method for U-2 OS cells: Wild-type U-2 OS cells (HTB-96) were obtained from ATCC.
CALUX® assay procedure: Testing was performed in non-blinded fashion. […] In brief, the assay was performed in assay medium, consisting of DMEM without phenol red indicator (Gibco) supplemented with 5% charcoal-stripped fetal calf serum (DCC), 1 × non-essential amino acids (Gibco) and 10 U/ml penicillin and 10 µg/ml streptomycin. A cell suspension in assay medium was made of 1 × 10^5 cells/ml, and white 384-wells plates were seeded with 30 µl cell suspension/well. After 24 h, exposure medium was prepared. A dilution series in 0.5 log unit increments of each test compound (in DMSO) was added to a 96-wells plate containing assay medium. Of this exposure mixture, 30 µl was added to the assay plates containing the CALUX® cells, resulting in a final DMSO concentration of 0.1%. Additionally, DMSO blanks and a full dose response curve of the reference compounds were included on each plate. All samples were tested in triplicates. The preparation of the compound dilution series as well as the exposure of the cells were performed on a Hamilton Starlet liquid handling robot coupled to a Cytomat incubator. […] Subsequently, the luciferase signal was measured in a luminometer (InfinitePro coupled to a Connect Stacker, both TECAN).
as §11, §12

Regarding `CC(C)Cc1ccc(C(C)C(=O)O)cc1` (stereo not drawn) [Ibuprofen], the “PoD PPARα - ago” value at PPARα is 4.3 -log(M). In addition, the “PoD PPARδ - ago” value on PPARδ is given as 4.0 -log(M). In addition, the “PoD PPARγ - ago” value on PPARγ was 4.0 -log(M). Besides, the “PoD p53” value in data set [1] was 3.0 -log(M). The “response profile over the CALUX battery (in words)” value in data set [2] was “activated all three isoforms of the peroxisome proliferator activated receptor”.
Consider `CC(=O)Nc1ccc(O)cc1` [Paracetamol], for which, in [3], the protein binding was 15%. For the same compound, in data set [2], the “response profile over the CALUX battery (in words)” value was “no effect”.
Consider `CC(C)(C)C(O)(CCc1ccc(Cl)cc1)Cn1cncn1` (stereo not drawn) [Tebuconazole], for which the “PoD PR - anta” value on Progesterone receptor is 5.6 -log(M). Moreover, the “PoD PXR - ago” value on Pregnane X receptor is given as 5.8 -log(M). Besides, in data set [4], the “PoD AhR - ago” value is listed as 5.1 -log(M). For the same compound, the “PoD Nrf2” value with Nrf2 (Oxidative stress) was 4.2 -log(M). Also, in the data set on U-2 OS cells, the PoD cytotoxicity is reported as 4.3 -log(M).
`CCCC(CCC)C(=O)O` [Valproic acid]: the “PoD PR - anta” value on Progesterone receptor is 3.1 -log(M). Further, on Pregnane X receptor, the “PoD PXR - ago” value was 4.0 -log(M). Also, the “PoD PPARα - ago” value at PPARα was 4.0 -log(M). The “PoD TCF” value in data set [5] is 4.0 -log(M). In data set [6], the “PoD ESRE” value was 4.0 -log(M). Moreover, the “PoD p21” value in [7] is 3.2 -log(M).
